# Reference: patent publication US20240190874A1, “SMALL MOLECULE DEGRADERS OF ANDROGEN RECEPTOR” (THE REGENTS OF THE UNIVERSITY OF MICHIGAN, priority 2021, published 2024)
# Key:
# Format in all cases: cell-based
# AR = molecular target: T1, AR (Homo sapiens, UniProt P10275); experiment: Degradation of AR in VCaP cells; settings: VCaP cells; for Dmax: VCaP
# T1 construct: Degradation of AR; Cellular potency; host or cells: VCaP cells
# T1 sequence (P10275 1-920): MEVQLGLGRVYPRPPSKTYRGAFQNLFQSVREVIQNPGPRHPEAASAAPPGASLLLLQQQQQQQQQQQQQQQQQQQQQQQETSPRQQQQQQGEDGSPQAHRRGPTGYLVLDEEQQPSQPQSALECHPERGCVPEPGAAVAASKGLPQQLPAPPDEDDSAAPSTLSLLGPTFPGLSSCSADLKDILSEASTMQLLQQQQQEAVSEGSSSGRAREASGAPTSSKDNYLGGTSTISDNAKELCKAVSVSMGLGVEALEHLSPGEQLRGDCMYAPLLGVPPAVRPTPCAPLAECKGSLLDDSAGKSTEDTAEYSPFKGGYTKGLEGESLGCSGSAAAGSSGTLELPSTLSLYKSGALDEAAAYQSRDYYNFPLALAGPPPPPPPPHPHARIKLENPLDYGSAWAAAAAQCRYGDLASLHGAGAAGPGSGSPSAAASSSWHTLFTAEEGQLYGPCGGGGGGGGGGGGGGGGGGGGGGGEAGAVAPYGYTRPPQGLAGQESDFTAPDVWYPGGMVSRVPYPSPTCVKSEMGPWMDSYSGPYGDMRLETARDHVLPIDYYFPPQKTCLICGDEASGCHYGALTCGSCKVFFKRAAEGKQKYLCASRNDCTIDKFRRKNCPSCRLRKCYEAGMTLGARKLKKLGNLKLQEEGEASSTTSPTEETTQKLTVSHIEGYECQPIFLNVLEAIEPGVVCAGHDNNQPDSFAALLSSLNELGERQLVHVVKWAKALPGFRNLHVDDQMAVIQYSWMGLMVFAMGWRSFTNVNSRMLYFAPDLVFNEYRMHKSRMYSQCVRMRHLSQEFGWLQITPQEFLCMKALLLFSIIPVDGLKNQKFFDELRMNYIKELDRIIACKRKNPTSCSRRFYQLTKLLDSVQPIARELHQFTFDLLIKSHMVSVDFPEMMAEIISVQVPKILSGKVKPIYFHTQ
# Description: (§1) Biological Assays. LNCaP and VCaP cells used were purchased from American Type Culture Collection (ATCC). LNCaP were grown in RPMI 1640 (Invitrogen) and VCaP cells were grown in DMEM with Glutamax (Invitrogen). All of the cells were supplemented with 10% fetal bovine serum (Invitrogen) at 37° C. in a humidified 5% CO2 incubator.
# LNCaP cells = experiment: Cellular potency (IC50) in LNCaP cells; settings: Homo sapiens, LNCaP
# Description: as §1
# VCaP cells = experiment: Cellular potency (IC50) in VCaP cells; settings: Homo sapiens, VCaP
# Description: as §1
compound,measurement,setting,value
C[C@H]1CC2(CCN(c3ccc(N4CCC(OC5CN(c6ccc7c(c6)C(=O)N(C6CCC(=O)NC6=O)C7=O)C5)CC4)nc3)CC2)CN1c1ccc(C#N)c(Cl)c1 (stereo partly shown) [compound 91],DC50,AR,< 1 nM
same,Dmax,AR,> 90%
same,IC50,LNCaP cells,< 10 nM
same,IC50,VCaP cells,< 10 nM
C[C@H]1CC2(CCN(c3ccc(N4CCC(OC5CN(c6ccc7c(c6)C(=O)N(C6CCC(=O)NC6=O)C7=O)C5)CC4)cn3)CC2)CN1c1ccc(C#N)c(Cl)c1 (stereo partly shown) [compound 92],DC50,AR,< 1 nM
same,Dmax,AR,> 90%
same,IC50,LNCaP cells,< 10 nM
same,IC50,VCaP cells,< 10 nM
"C[C@H]1CC2(CCN(c3ccc(N4CCC(N(C)C5CN(c6ccc7c(c6)C(=O)N(C6CCC(=O)NC6=O)C7=O)C5)CC4)cc3)CC2)CN1c1ccc(C#N)c(Cl)c1 (stereo partly drawn) [compound 119, 2-chloro-4-((3S)-8-(4-(4-((1-(2-(2,6-dioxopiperidin-3-yl)-1,3-dioxoisoindolin-5-yl)azetidin-3-yl)(methyl)amino)piperidin-1-yl)phenyl)-3-methyl-2,8-diazaspiro[4.5]decan-2-yl)benzonitrile]",Dmax,AR,> 90%
same,IC50,LNCaP cells,< 10 nM
same,IC50,VCaP cells,< 10 nM
C[C@H]1CC2(CCN(c3ccc(N4CCC(NC5CN(c6ccc7c(c6)C(=O)N(C6CCC(=O)NC6=O)C7=O)C5)CC4)cc3)CC2)CN1c1ccc(C#N)c(Cl)c1 (stereo partly shown) [compound 120],DC50,AR,< 1 nM
same,Dmax,AR,> 90%
same,IC50,LNCaP cells,< 10 nM
same,IC50,VCaP cells,< 10 nM
C[C@H]1CC2(CCN(c3ccc(N4CC(N(C)C5CN(c6ccc7c(c6)C(=O)N(C6CCC(=O)NC6=O)C7=O)C5)C4)cc3)CC2)CN1c1ccc(C#N)c(Cl)c1 (stereo partly shown) [compound 121],DC50,AR,< 100 nM
same,Dmax,AR,70 to 90%
same,IC50,LNCaP cells,< 100 nM
same,IC50,VCaP cells,< 100 nM
C[C@H]1CC2(CCN(c3ccc(N4CCC(N(C)C5CN(c6ccc7c(c6)C(=O)N(C6CCC(=O)NC6=O)C7=O)C5)CC4)cn3)CC2)CN1c1ccc(C#N)c(Cl)c1 (stereo partly shown) [compound 123],DC50,AR,< 1 nM
same,Dmax,AR,> 90%
same,IC50,LNCaP cells,< 10 nM
same,IC50,VCaP cells,< 10 nM
C[C@H]1CC2(CCN(c3ccc(N4CCC(N(C)C5CN(c6ccc7c(c6)C(=O)N(C6CCC(=O)NC6=O)C7=O)C5)CC4)nc3)CC2)CN1c1ccc(C#N)c(Cl)c1 (stereo partly shown) [compound 124],DC50,AR,< 10 nM
same,Dmax,AR,70 to 90%
same,IC50,LNCaP cells,< 100 nM
same,IC50,VCaP cells,< 100 nM
C[C@H]1CC2(CCN(c3ccc(N4CCC(N(C)C5CN(c6ccc7c(c6)C(=O)N(C6CCC(=O)NC6=O)C7=O)C5)CC4)nn3)CC2)CN1c1ccc(C#N)c(Cl)c1 (stereo partly shown) [compound 125],DC50,AR,< 10 nM
same,Dmax,AR,> 90%
same,IC50,LNCaP cells,< 10 nM
same,IC50,VCaP cells,< 10 nM
C[C@H]1CC2(CCN(c3ccc(OC4CCN(C5CN(c6cc7c(cc6F)C(=O)N(C6CCC(=O)NC6=O)C7=O)C5)CC4)cc3)CC2)CN1c1ccc(C#N)c(Cl)c1 (stereo partly shown) [compound 131],DC50,AR,< 1 nM
same,Dmax,AR,> 90%
same,IC50,LNCaP cells,< 10 nM
same,IC50,VCaP cells,< 10 nM
C[C@H]1CC2(CCN(c3ccc(OC4CCN(C5CN(c6cc7c(cc6F)C(=O)N(C6CCC(=O)NC6=O)C7=O)C5)CC4)cn3)CC2)CN1c1ccc(C#N)c(Cl)c1 (stereo partly shown) [compound 132],DC50,AR,< 1 nM
same,Dmax,AR,> 90%
same,IC50,LNCaP cells,< 10 nM
same,IC50,VCaP cells,< 10 nM
C[C@H]1CC2(CCN(c3ccc(OC4CCN(C5CN(c6cc7c(cc6F)C(=O)N(C6CCC(=O)NC6=O)C7=O)C5)CC4)nc3)CC2)CN1c1ccc(C#N)c(Cl)c1 (stereo partly shown) [compound 133],DC50,AR,< 1 nM
same,Dmax,AR,> 90%
same,IC50,LNCaP cells,< 10 nM
same,IC50,VCaP cells,< 10 nM
C[C@H]1CC2(CCN(c3ccc(OC4CCN(C5CN(c6cc7c(cc6F)C(=O)N(C6CCC(=O)NC6=O)C7=O)C5)CC4)nn3)CC2)CN1c1ccc(C#N)c(Cl)c1 (stereo partly shown) [compound 134],DC50,AR,< 1 nM
same,Dmax,AR,> 90%
same,IC50,LNCaP cells,< 10 nM
same,IC50,VCaP cells,< 10 nM
C[C@H]1CC2(CCN(c3ccc(C(=O)N4CCN(C5CN(c6ccc7c(c6)C(=O)N(C6CCC(=O)NC6=O)C7=O)C5)CC4)s3)CC2)CN1c1ccc(C#N)c(Cl)c1 (stereo partly shown) [compound 135],DC50,AR,< 10 nM
same,Dmax,AR,70 to 90%
same,IC50,LNCaP cells,< 100 nM
same,IC50,VCaP cells,< 100 nM
C[C@H]1CC2(CCN(c3ncc(C(=O)N4CCN(C5CN(c6ccc7c(c6)C(=O)N(C6CCC(=O)NC6=O)C7=O)C5)CC4)s3)CC2)CN1c1ccc(C#N)c(Cl)c1 (stereo partly shown) [compound 136],DC50,AR,< 1 nM
same,Dmax,AR,> 90%
same,IC50,LNCaP cells,< 10 nM
same,IC50,VCaP cells,< 10 nM
C[C@H]1CC2(CCN(c3cnc(C(=O)N4CCN(C5CN(c6ccc7c(c6)C(=O)N(C6CCC(=O)NC6=O)C7=O)C5)CC4)s3)CC2)CN1c1ccc(C#N)c(Cl)c1 (stereo partly shown) [compound 137],DC50,AR,< 10 nM
same,Dmax,AR,70 to 90%
same,IC50,LNCaP cells,< 100 nM
same,IC50,VCaP cells,< 100 nM
C[C@H]1CC2(CCN(c3ccc(C(=O)N4CCC(N5Cc6cc7c(cc6C5)C(=O)N(C5CCC(=O)NC5=O)C7=O)CC4)s3)CC2)CN1c1ccc(C#N)c(Cl)c1 (stereo partly shown) [compound 138],DC50,AR,< 10 nM
same,Dmax,AR,70 to 90%
same,IC50,LNCaP cells,< 100 nM
same,IC50,VCaP cells,< 100 nM
C[C@H]1CC2(CCN(c3ncc(C(=O)N4CCC(N5Cc6cc7c(cc6C5)C(=O)N(C5CCC(=O)NC5=O)C7=O)CC4)s3)CC2)CN1c1ccc(C#N)c(Cl)c1 (stereo partly shown) [compound 139],DC50,AR,< 10 nM
same,Dmax,AR,70 to 90%
same,IC50,LNCaP cells,< 100 nM
same,IC50,VCaP cells,< 100 nM
C[C@H]1CC2(CCN(c3ccc(S(=O)(=O)C4CN(C(=O)CN5Cc6cc7c(cc6C5)C(=O)N(C5CCC(=O)NC5=O)C7=O)C4)cc3)CC2)CN1c1ccc(C#N)c(Cl)c1 (stereo partly shown) [compound 149],DC50,AR,< 1 nM
same,IC50,LNCaP cells,< 10 nM
same,IC50,VCaP cells,< 100 nM
C[C@H]1CC2(CCN(c3ccc(S(=O)(=O)C4CCN(C(=O)CN5Cc6cc7c(cc6C5)C(=O)N(C5CCC(=O)NC5=O)C7=O)CC4)cc3)CC2)CN1c1ccc(C#N)c(Cl)c1 (stereo partly shown) [compound 152],DC50,AR,< 1 nM
same,IC50,LNCaP cells,< 100 nM
same,IC50,VCaP cells,< 100 nM
C[C@H]1CC2(CCN(c3ccc(CN4CCN(C5CCN(c6ccc7c(c6)C(=O)N(C6CCC(=O)NC6=O)C7=O)CC5)CC4)cn3)CC2)CN1c1ccc(C#N)c(Cl)c1 (stereo partly shown) [compound 154],DC50,AR,< 1 nM
same,IC50,LNCaP cells,< 10 nM
same,IC50,VCaP cells,< 100 nM
C[C@H]1CC2(CCN(c3ccc(C(=O)N4CCC(C(=O)CN5Cc6cc7c(cc6C5)C(=O)N(C5CCC(=O)NC5=O)C7=O)CC4)nc3)CC2)CN1c1ccc(C#N)c(Cl)c1 (stereo partly shown) [compound 160],DC50,AR,< 1 nM
same,IC50,LNCaP cells,< 10 nM
same,IC50,VCaP cells,< 1000 nM
C[C@H]1CC2(CCN(c3ccc(S(=O)(=O)C4CCN(C5CCN(c6ccc7c(c6)C(=O)N(C6CCC(=O)NC6=O)C7=O)CC5)CC4)cc3)CC2)CN1c1ccc(C#N)c(Cl)c1 (stereo partly shown) [compound 161],DC50,AR,< 1 nM
same,IC50,LNCaP cells,< 10 nM
same,IC50,VCaP cells,< 10 nM
C[C@H]1CC2(CCN(c3ccc(S(=O)(=O)C4CCN(CC5CCN(c6ccc7c(c6)C(=O)N(C6CCC(=O)NC6=O)C7=O)CC5)CC4)cc3)CC2)CN1c1ccc(C#N)c(Cl)c1 (stereo partly shown) [compound 162],DC50,AR,< 1 nM
same,IC50,LNCaP cells,< 10 nM
same,IC50,VCaP cells,< 10 nM
C[C@H]1CC2(CCN(c3ccc(S(=O)(=O)C4CCN(C5CN(c6ccc7c(c6)C(=O)N(C6CCC(=O)NC6=O)C7=O)C5)CC4)cc3)CC2)CN1c1ccc(C#N)c(Cl)c1 (stereo partly shown) [compound 163],DC50,AR,< 1 nM
same,IC50,LNCaP cells,< 10 nM
same,IC50,VCaP cells,< 10 nM
C[C@H]1CC2(CCN(c3ccc(S(=O)(=O)C4CCN(CC5CN(c6ccc7c(c6)C(=O)N(C6CCC(=O)NC6=O)C7=O)C5)CC4)cc3)CC2)CN1c1ccc(C#N)c(Cl)c1 (stereo partly shown) [compound 164],DC50,AR,< 1 nM
same,IC50,LNCaP cells,< 100 nM
same,IC50,VCaP cells,< 10 nM
